Consider two substances from patent publication US11129870B2, “Compositions and methods for uncoupling TrkB receptor from PLC gamma 1 for the treatment of epilepsy and anxiety-like disorder” (DUKE UNIVERSITY, priority 2010, dated 2021).

Where no end group is shown, it is not given here. [ ]: non-standard residue; d: D form. pY = N[C@@H](Cc1ccc(OP(=O)(O)O)cc1)C(=O)O

Experiment [1] relates to TrkB-mediated activation of PLCγ1. Put plainly: BDNF-mediated activation of PLCγ1 (p-PLCγ1 Y783 western blot) in cultured cortical neurons. The note with it: for BDNF-mediated increase of p-PLC γ-1/PLC γ-1 ratio (quantified, FIG. 10): 10-120 min pretreatment, 120 min p<0.05; for inhibition of BDNF-mediated increased p-PLCγ1 783: preincubation 60-120 min, BDNF 10 ng/ml. The class given is cell-based, rat. On the technique in general: In western blotting, separated proteins are transferred to a membrane and probed.

In experiment [2] the test system is hippocampal neurons (CA3b). Put plainly: NeuN and GFAP immunostaining of hippocampal CA3b 10 weeks after SE. The class given is in vivo, mouse. The source says: Neurons and astrocytes were visualized using antibodies against neuronal nuclei (mouse monoclonal to NeuN, 1:500; Millipore) and glial fibrillary acidic protein (rabbit polyclonal to GFAP, 1:1000; Sigma) detected with Alexafluor 488 coupled anti-mouse and Alexafluor 594 coupled anti-rabbit secondary antibodies (Molecular Probes), respectively. Images were captured using a Leica TCS SL confocal microscopy system equipped with a 63× oil-immersion objective lens. NeuN-positive cell counting was performed by an investigator blinded to the genotype and treatment conditions with ImageJ software (Ferreira, T. et al., (2011). The Image J User Guide) in a 260×260 μm field within the CA3b pyramidal cell layer. Mean counts were obtained from two adjacent rostral and two adjacent middle hippocampal sections ipsilateral to the infused amygdala.
Ten weeks following SE, mice were anesthetized with pentobarbital (200 mg/kg, i.p.) and underwent intra-cardiac perfusion with PBS containing heparin (5 U/ml) followed by 4% paraformaldehyde. Brains were removed, frozen by slow immersion in isopentane chilled in dry ice, cryoprotected, and sectioned. Serial 40 μm coronal sections were cut through the forebrain spanning the entire hippocampus. Adjacent sections at two levels relative to bregma (˜1.68 mm posterior designated “rostral”) or (˜2.32 mm posterior designated “middle”) were stained for NeuN and GFAP as previously described (Mouri, G. et al., (2008) Brain Res 1213:140-151) and mean counts of NeuN positive cells were obtained from two adjacent rostral and two adjacent middle hippocampal sections ipsilateral to the infused amygdala by an observer blinded to treatment.

The subject of experiment [3] is spontaneous recurrent seizures. Nature of the experiment: SE-induced epilepsy: spontaneous recurrent seizures by video-EEG after 3 days of treatment following KA-SE. The class given is in vivo, mouse. Particulars: for animals with initial spontaneous seizure within 3 days following SE: 10 mg/kg i.v. x3, n=8; for number of spontaneous seizures: n=8, mean±SEM; for spontaneous recurrent seizures per animal (range): for pY816 the six animals with seizures. The protocol: Surgery and microinfusion studies provided in Examples 10-14 were performed as described here. Surgery and microinfusion of KA into right amygdala of adult mice was performed as previously described (Liu, G. et al., (2013) Neuron 79:31-38). Briefly, mice were anesthetized with pentobarbital (60 mg/kg, intraperitoneally [i.p.]) and placed in a stereotaxic frame. A guide cannula was stereotactically placed above the right amygdala (coordinates from bregma: AP=−1.2 mm; ML=3.0 mm). A bipolar electrode was placed in the left dorsal hippocampus (coordinates from bregma: AP=−2.0 mm; ML=−1.6 mm; DV=−1.5 mm). A ground electrode connected to a screw was placed in the skull above the cerebellum. After a postoperative recovery period of 7 days, the animal was gently restrained and an infusion cannula was inserted into the right amygdala through the guide cannula at the depth of 3.7 mm below dura. Either KA (0.3 μg in 0.5 μl PBS) or vehicle control (0.5 μl of PBS) was infused into the right basolateral amygdala at the rate of 0.11 μl per minute. The infusion cannula was left in the right amygdala for two additional minutes before being withdrawn from the guide cannula. Animals were housed individually for time locked electroencephalogram (EEG) telemetry and video monitoring with food and water ad libitum.
Emergence of SE was typically evident in EEG recordings 5-10 min after KA infusion. The behavioral seizures associated with electrographic seizures typically consisted of immobility, followed by facial automatisms, unilateral or bilateral forelimb clonus, and whole body clonus. Tonic-clonic seizures with loss of posture and jumping also occurred during the seizures (Mouri, G. et al., (2008) Brain Res 1213:140-151). For experiments in which p816 or Scr was administered prior to SE, mice were monitored for 45 min following KA infusion. EEG patterns consistent with electrographic SE included any of the following: 1. discrete electrographic seizures; 2. waxing and waning epileptiform activity; 3. continuous, high amplitude, rapid spiking; 4. periodic epileptiform discharges on a relatively flat background as described by Treiman, D. M. et al., (1990) Epilepsy Res 5:49-60 and Walton, et. al., (1988) Exp Neurol 101:267-275. Behavioral patterns consistent with seizures included Classes 3-6 as described in the following section (Racine, R. J. (1972) Electroencephalogr Clin Neurophysiol 32:281-294; Borges, K. et al., (2003) Exp Neurol 182:21-34). The duration of behavioral and electrographic SE were determined by analyses of video and EEG data by trained observers blinded to treatment of mice. A similar method was used in experiments examining effects of mutations (trkB^PLC/PLC and PLCγ1^+/−) on SE induced by KA. For experiments in which p816 or Scr was administered following SE, diazepam (10 mg/kg, i.p.) was administered 40 minutes after the onset of SE followed by lorazepam (6 mg/kg, i.p.) one hour later to suppress SE and limit the mortality and morbidity of this model. Animals underwent continuous video-EEG monitoring 24 hr per day, 7 days per week for first two weeks post-SE (day 1-14). At the end of the second week post-SE, monitoring was discontinued and animals were returned to home cages. After a two-week interval, monitoring was resumed for an additional two weeks (day 29-42). Spontaneous recurrent seizures were identified by review of video-EEG files by independently by each of two trained readers blinded to treatment of mice. The consistency of identifying SRS between readers was ˜90%; in instances in which readers disagreed, the events were excluded from this study. SRS was defined electrographically as high frequency (>5 Hz), high amplitude (>2×baseline) rhythmic epileptiform activity with a minimal duration of 5 s and behaviorally with video-monitoring (see behavioral-seizure scoring). […]

On to “YGRKKRRQRRR-LQNLAKASPVpYLDI (YGRKKRRQRRRLQNLAKASPV[pY]LDI) [pY816]”, for which the “inhibition of BDNF-mediated activation of PLCγ1 (pPLCγ1 783 immunoreactivity)” value in experiment [1] (0.1 μM, 90 mins preincubation, BDNF 10 ng/ml 15 mins) was “did not inhibit”. In experiment [1] (1 μM, 90 mins preincubation, BDNF 10 ng/ml 15 mins), the “inhibition of BDNF-induced increase of pPLCγ1 783” value is on record as “limited the BDNF-induced increase of pPLCγ1 783 in a concentration dependent manner”. Moreover, in experiment [1] (10 μM), the “BDNF-mediated increase of p-PLC γ-1/PLC γ-1 ratio (quantified, FIG. 10)” value is listed as “inhibited the BDNF-mediated increase of p-PLC γ-1/PLC γ-1 ratio in a time dependent manner” and the “inhibition of BDNF-mediated increased p-PLCγ1 783” value is given as “inhibited BDNF-mediated increased p-PLCγ1 783”. Also, the “inhibition of BDNF-mediated PLCγ1 activation” value in experiment [1] (10 μM, 60 min preincubation, compared to Scr) stood at 68.2%. For the same substance, the “inhibition of BDNF mediated PLCγ1 activation” value in experiment [1] (10 μM, 90 min preincubation, compared to Scr) stood at 79.3%. Also, the “inhibition of BDNF-induced increase of pPLCγ1 783” value in experiment [1] (10 μM, 90 mins preincubation, BDNF 10 ng/ml 15 mins) is recorded as “limited the BDNF-induced increase of pPLCγ1 783 in a concentration dependent manner”. In addition, in experiment [1] (10 μM, 120 min preincubation, compared to Scr), the “inhibition of BDNF-mediated PLCγ1 activation” value was determined as 94.5%. The “reactive gliosis (enlarged GFAP-immunoreactive cells) in CA3b” value in experiment [2] is recorded as “attenuated”. Besides, the “reduction of neuron loss” value in experiment [2] (compared to Scr treatment) was ~30%. In experiment [3] (10 mg/kg i.v. immediately, 24 hr and 48 hr after SE, compared to control), the “latency to the onset of the first spontaneous seizure” value was “delayed”. In experiment [3], the “animals with initial spontaneous seizure within 3 days following SE” value is recorded as “single”. In experiment [3] (days 1-14 after SE), the “reduction in the number of spontaneous seizures compared to Scr” value amounted to 86% and the “number of spontaneous seizures” value is 2.4±0.6. Besides, in experiment [3] (days 29-42 after SE), the “reduction in the number of spontaneous seizures compared to Scr” value amounted to 90%, the “number of spontaneous seizures” value was found to be 1.5±0.4 and the “spontaneous recurrent seizures per animal (range)” value was 1-3 seizures. The “animals that exhibited no seizures” value in experiment [3] (days 29-42 after SE, of eight treated) is given as “two”.

Take “YGRKKRRQRRRLVApYQLKIAPNDLS (YGRKKRRQRRRLVA[pY]QLKIAPNDLS) [Scr, reference compound]”: in experiment [1] (10 μM), the “BDNF-mediated increase of p-PLC γ-1/PLC γ-1 ratio (quantified, FIG. 10)” value was “ineffective” and the “inhibition of BDNF-mediated increased p-PLCγ1 783” value is reported as “no inhibition was evident”. In addition, the “reduction of neurons (NeuN immunoreactive cells) in CA3b hippocampus” value in experiment [2] (compared to PBS-infused controls) was ~50%. The “animals with initial spontaneous seizure within 3 days following SE” value in experiment [3] is on record as 5 of 8. In experiment [3] (days 1-14 after SE), the “number of spontaneous seizures” value stood at 18.1±1.7. In experiment [3] (days 29-42 after SE), the “number of spontaneous seizures” value stood at 16.5±3.5 and the “spontaneous recurrent seizures per animal (range)” value was 7-36 seizures.
